Source: US20230129364A1, “PYRROLIDINE DERIVATIVE, AND PHARMACEUTICAL COMPOSITION FOR PREVENTING OR TREATING BETA-AMYLOID OR TAU PROTEIN-ASSOCIATED DISEASES CONTAINING SAME” (YONSEI UNIVERSITY, UNIVERSITY - INDUSTRY FOUNDATION (UIF), priority 2019, published 2023)

Legend:
Type in all cases: biochemical
[1] = target: T1, Tau protein (wild-type K18) (Homo sapiens, UniProt P10636); test: Tau protein aggregation inhibition test (thioflavin T assay); conditions: heparin/DTT-induced aggregation, 37° C. 5 days, ThT fluorescence vs tau-only control = 100%
T1 construct: Tau protein (wild-type K18)
T1 sequence (P10636 561-685 limits assumed): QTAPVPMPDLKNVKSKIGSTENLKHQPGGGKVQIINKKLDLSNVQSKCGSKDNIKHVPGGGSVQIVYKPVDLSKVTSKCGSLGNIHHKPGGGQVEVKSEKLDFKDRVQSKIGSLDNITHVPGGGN
Protocol: (§1) Tau protein (wild-type K18) was dissolved in phosphate-buffered saline (PBS, pH 7.4) at a concentration of 1 mg/mL to prepare a tau protein solution. In order to induce aggregation of tau proteins, 0.1 mg/mL of heparin and 100 μM dithiothreitol (DTT) were added to 1 mg/mL of the tau protein solution, followed by incubation at 37° C. for 5 days. At this time, the result was mixed with each test compound (50, 500 μM) such that the final concentration reached 0.5 mg/mL, followed by further incubation.
The inhibitory effect of each compound against tau aggregation was measured based on the intensity of fluorescence by thioflavin T (ThT) assay (see Example 2). More specifically, 25 μL of the reaction solution was charged in each well of a 96-well plate for fluorescence analysis, and 75 μL of the prepared thioflavin-T solution was then charged in each well. The reaction was allowed to proceed at room temperature in a dark laboratory for 5 minutes, and then fluorescence values were measured at an excitation wavelength of 450 nm and an emission wavelength of 485 nm using a multi-mode microplate reader.
The ratio of the fluorescence value measured in the group obtained by treating with each test compound to 100% of the fluorescence value of the group (control group) obtained by treating only with tau proteins and inducing aggregation for 5 days is set forth in Table 5 below: […]

[2] = target: T2, aggregated beta-amyloid; human Aβ 1-42 (UniProtKB-P05067, a.a. 672-713) (Homo sapiens, UniProt P05067); test: Beta-amyloid aggregate degradation test (thioflavin T assay); conditions: pre-aggregated Aβ, further 3 days at 37° C., ThT fluorescence vs control = 100%
T2 construct: UniProtKB-P05067, a.a; 672-713
T2 sequence (P05067 672-713): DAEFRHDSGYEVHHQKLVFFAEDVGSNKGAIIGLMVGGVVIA
Protocol: Aβ (beta-amyloid; human A3 1-42 monomer (UniProtKB-P05067, a.a. 672-713)) was dissolved at a concentration of 10 mM in dimethyl sulfoxide (DMSO), and the resulting solution was diluted to 250 μM using distilled water, and then incubated at 37° C. for 3 days to induce aggregation. The aggregated beta-amyloid was added with each test compound in an amount of 50 or 500 μM such that the final concentration reached 25 μM, and was further cultured at 37° C. for 3 days to induce reaction. The aggregate degradation effect of each test compound was measured by thioflavin T (ThT) assay (see Example 2). Specifically, 25 μL of the reaction solution was charged in each well of a 96-well plate for fluorescence analysis and 75 μL of the prepared thioflavin-T solution was charged in each well. The reaction was allowed to proceed at room temperature in a dark laboratory for 5 minutes and then fluorescence values were measured at an excitation wavelength of 450 nm and an emission wavelength of 485 nm using a multi-mode microplate reader. The ratio of the fluorescence value measured in the group obtained by treating with each test compound to 100% of the fluorescence value of the group (control group) obtained by treating only with beta-amyloids and inducing aggregation for 3 days is set forth in Table 4 below: […]

[3] = target: T3, aggregated tau protein (wild-type K18) (Homo sapiens, UniProt P10636); test: Tau protein aggregate degradation test (thioflavin T assay); conditions: pre-aggregated tau, further 5 days at 37° C., ThT fluorescence vs control = 100%
T3 construct: Tau protein (wild-type K18)
T3 sequence (P10636 561-685 limits assumed): as the sequence (P10636 561-685 limits assumed) above
Protocol: as §1, with “solution.” for “solution. In order to induce aggregation of tau proteins,”, “days to induce tau protein aggregation. The aggregated tau protein” for “days. At this time, the result”, “in an amount of 50 or” for “(50,”, “μM” for “μM)”, “incubation at 37° C. for 5 days to induce reaction.” for “incubation.”
The degradation effect of each compound on the tau aggregates was measured by thioflavin T (ThT) assay (see Example 2). More specifically, 25 μL of the reaction solution was charged in each well of a 96-well plate for fluorescence analysis and 75 μL of the prepared thioflavin-T solution was charged in each well. The reaction was allowed to proceed at room temperature in a dark laboratory for 5 minutes and then fluorescence values were measured at an excitation wavelength of 450 nm and an emission wavelength of 485 nm using a multi-mode microplate reader.
The ratio of the fluorescence value measured in the group obtained by treating with each test compound to 100% of the fluorescence value of the group (control group) obtained by treating only with tau proteins and inducing aggregation for 5 days is set forth in Table 6 below: […]

Structure (SMILES)	Tau aggregation remaining (ThT fluorescence, % of tau-only control) ([1]; 50 uM test compound)	Tau aggregation remaining (ThT fluorescence, % of tau-only control) ([1]; 500 uM test compound)	Beta-amyloid aggregate degradation activity (% of control) ([2]; 50 uM test compound)	Beta-amyloid aggregate degradation activity (% of control) ([2]; 500 uM test compound)	ThT fluorescence remaining (% of control) ([3]; 50 uM test compound)	ThT fluorescence remaining (% of control) ([3]; 500 uM test compound)
CCN1C(=O)/C(=C/c2c[nH]c3cccnc23)NC1=S [DN204817, (Z)-5-((1H-pyrrolo[3,2-b]pyridin-3-yl)methylene)-3-ethyl-2-thioxoimidazolidin-4-one]	87.3 % of control	66.18 % of control		78.39 % of control	49.84 % of control	43.06 % of control
CCN1C(=O)/C(=C/c2ccoc2)NC1=S [DN204814, (Z)-3-ethyl-5-(furan-3-ylmethylene)-2-thioxoimidazolidin-4-one]		28.47 % of control	58.02 % of control	−40.60 % of control	30.07 % of control	−22.72 % of control
CCN1C(=O)/C(=C/c2c[nH]c3ccncc23)SC1=S [DN205780, (Z)-5-((1H-pyrrolo[3,2-c]pyridin-3-yl)methylene)-3-ethyl-2-thioxothiazolidin-4-one]	69.83 % of control	33.02 % of control	51.31 % of control	35.73 % of control	27.50 % of control	10.84 % of control
O=C1NC(=O)C(Cc2cnc3ccccc3c2)S1 (centres unmarked) [DN204294, 5-(quinolin-3-ylmethyl)thiazolidine-2,4-dione]	85.91 % of control		88.64 % of control	74.80 % of control		
O=C1NC(=S)S/C1=C\c1ccsc1 [DN204299, (Z)-5-(thiophen-3-ylmethylene)-2-thioxothiazolidin-4-one]	60.521 % of control	33.932 % of control		80.07 % of control	72.21 % of control	45.09 % of control
O=C1NC(=S)S/C1=C\c1ccc2occc2c1 [DN204809, (Z)-5-(benzofuran-5-ylmethylene)-2-thioxothiazolidin-4-one]	36.72 % of control	32.09 % of control	95.14 % of control	25.32 % of control	51.93 % of control	30.87 % of control
CN1C(=O)N/C(=C\c2c[nH]c3cccnc23)C1=O [DN204673, (Z)-5-((1H-pyrrolo[3,2-b]pyridin-3-yl)methylene)-3-methylimidazolidine-2,4-dione]		55.87 % of control	86.89 % of control	30.52 % of control		

Continued, values first:

Tau aggregation remaining (ThT fluorescence, % of tau-only control) ([1]; 50 uM test compound)	Tau aggregation remaining (ThT fluorescence, % of tau-only control) ([1]; 500 uM test compound)	Beta-amyloid aggregate degradation activity (% of control) ([2]; 50 uM test compound)	Beta-amyloid aggregate degradation activity (% of control) ([2]; 500 uM test compound)	ThT fluorescence remaining (% of control) ([3]; 50 uM test compound)	ThT fluorescence remaining (% of control) ([3]; 500 uM test compound)	Structure (SMILES)
74.46 % of control	52.99 % of control	85.76 % of control	55.35 % of control	28.74 % of control	23.79 % of control	CCN1C(=O)/C(=C/c2c[nH]c3cccnc23)SC1=S [DN205781, (Z)-5-((1H-pyrrolo[3,2-b]pyridin-3-yl)methylene)-3-ethyl-2-thioxothiazolidin-4-one]
40.038 % of control	25.883 % of control	93.80 % of control	44.61 % of control	49.41 % of control	30.65 % of control	O=C1NC(=S)S/C1=C\c1c[nH]c2ncccc12 [DN205355, (Z)-5-((1H-pyrrolo[2,3-b]pyridin-3-yl)methylene)-2-thioxothiazolidin-4-one]
20.35 % of control	1.71 % of control	95.08 % of control	35.83 % of control	14.94 % of control	5.16 % of control	O=C1NC(=S)S/C1=C\c1csc2ccccc12 [DN204818, (Z)-5-(benzo[b]thiophen-3-ylmethylene)-2-thioxothiazolidin-4-one]
56.04 % of control	82.71 % of control		94.23 % of control			O=C1NC(=O)/C(=C/c2c[nH]c3ncccc23)S1 [DN204286, (Z)-5-((1H-pyrrolo[2,3-b]pyridin-3-yl)methylene)thiazolidine-2,4-dione]
48.721 % of control	16.233 % of control	86.80 % of control	28.19 % of control	52.16 % of control	17.97 % of control	O=C1NC(=S)S/C1=C\c1cc[nH]c1 [DN204297, (Z)-5-((1H-pyrrol-3-yl)methylene)-2-thioxothiazolidin-4-one]
27.48 % of control	16.09 % of control		73.30 % of control	62.2 % of control	41.11 % of control	O=C1NC(=S)S/C1=C\c1c[nH]c2cccnc12 [DN204808, (Z)-5-((1H-pyrrolo[3,2-b]pyridin-3-yl)methylene)-2-thioxothiazolidin-4-one]
93.56 % of control	74.24 % of control		53.56 % of control			O=C1NC(=S)S/C1=C\c1c[nH]c2ccncc12 [DN204807, (Z)-5-((1H-pyrrolo[3,2-c]pyridin-3-yl)methylene)-2-thioxothiazolidin-4-one]
